≈ marks a conversion by molar mass, not a printed value. Where “and” joins values, the source holds several entries; their conditions need not be identical. Equal values may be shown once. Read-outs that look alike come from different tables or passages of the source.
Tests used:
[1] = tested on: A. baumannii A489; assay: Preliminary MBC without and with sub-inhibitory polymyxin B (Example 4); type: cell-based, Acinetobacter baumannii
[2] = tested on: Acinetobacter sp. (H064200250); assay: as above; type: cell-based
Description: The plates were incubated for 18-20 hours at 37° C. The MBC was read as the lowest concentration at which colony growth was ca. 90% less than the positive control (i.e. usually where single colonies or no colonies were observed).

[3] = tested on: A. baumannii A14; assay: as above; type: cell-based, Acinetobacter baumannii; details: for MBC +0.06 μg/ml PB: +0.06 μg/ml polymyxin B; for MBC: Acinetobacter baumannii
[4] = tested on: A. baumannii ATCC 19606; assay: as above; type: cell-based, Acinetobacter baumannii
[5] = Cytotoxicity (Example 7); type: cell-based; details: human, HEPG2 V1 cells
Description: The 4-oxoquinolizine compounds of the invention preferably have a low cytotoxicity against human cells. […].
Cytotoxicity was determined for the instant 4-oxoquinolizine compounds which show low cytotoxicity. (see Table 17 following). […]

[6] = tested on: B. thailandensis; type: cell-based, Burkholderia thailandensis; details: pH 7 vs pH 5
[7] = tested on: S. aureus SMITH; assay: MIC, panel of quinolone-resistant strains (Example 2); type: cell-based; details: Staphylococcus aureus; CIP R; read-out: MIC S. aureus SMITH
[8] = tested on: S. pneumoniae 49619; assay: as above; type: cell-based, Streptococcus pneumoniae; details: Streptococcus pneumoniae, 49619; LEV S; read-out: MIC S. pneumoniae 49619
[9] = tested on: E. faecalis 29212; assay: MIC, standard panel of Gram-positive and Gram-negative strains (Example 2); type: cell-based, Enterococcus faecalis; details: Enterococcus faecalis, 29212; read-out: MIC E. faecalis 29212
[10] = tested on: A. baumanii 19606; assay: as above; type: cell-based; details: Acinetobacter baumannii
[11] = tested on: GN52 Acinetobacter baumannii levofloxacin resistant clinical isolate; assay: Chequerboard synergy with polymyxin B, FICI (Example 6); type: cell-based
From the text: (§1) A chequerboard technique was used to identify possible synergistic or antagonistic interactions between the 4-oxoquinolizines compounds, levofloxacin and polymyxin B. Levofloxacin was included as a control. […] Final dilutions were made in Mueller-Hinton broth, the specific test medium used for MIC determinations according to CLSI guidelines (CLSI. Methods for Dilution Antimicrobial Susceptibility Tests for Bacteria That Grow Aerobically; Approved Standard-Eighth Edition (2009). CLSI Document M07-A8. CLSI, Wayne, Pa. 19087-1898, USA.). The test medium used was a cation-adjusted Mueller-Hinton Broth II (Becton Dickinson UK Ltd., Oxford Science Park, Oxford, UK, OX4 4DQ).
(§2) The compounds 2, 33 and 35, as well as levofloxacin were tested in combination with polymyxin B on the following isolates: GN31 Acinetobacter baumannii—antibiotic susceptible clinical isolate, GN52 Acinetobacter baumannii—levofloxacin resistant clinical isolate, GN56 Acinetobacter baumannii—levofloxacin resistant clinical isolate, GN48 Klebsiella pneumoniae—NCTC 13443—NDM-1-metallo-β-lactamase and GN10 Pseudomonas aeruginosa—ATCC 27853—antibiotic susceptible reference isolate. All isolates are from the collection maintained at Quotient Bioresearch Ltd., Cambridge, UK.
(§3) The MIC values for the compounds and polymyxin B and levofloxacin were determined by broth microdilution following CLSI guidelines, and the MICs of agents in combination were determined as described by Pillai et. al (Pillai S K, Moellering R C Jr, Eliopoulis G M; Antimicrobial Combinations in Antibiotics in Laboratory Medicine 5th Edition (V. Lorian Ed) (2005) p 365-440). Initial MIC results were used to determine the microtiter plate patterns for the chequerboards. A suitable doubling dilution concentration range was selected such that the combination antibiotic range was at least two concentrations above and four concentrations below the MIC for each isolate. A fixed range of 0.008 to 8 mg/L was tested for polymyxin B except in the case of A. baumannii GN31 where a range of 0.004 to 4 mg/L was tested when in combination with the compounds 2, 33 and 35 as well as levofloxacin.
(§4) From the raw data, fractional inhibitory concentration indices (FICI) were determined for the compounds of the invention and levofloxacin together with polymyxin B for each isolate as follows:
(§5) FICX=concentration of the combination antibiotic in a particular row MIC of the combination drug alone
(§6) FICY=MIC of polymyxin B in combination[…]MIC of the polymyxin B alone
(§7) Additionally isobolograms were created to represent the same data visually. Here, the MIC of polymyxin B was plotted against every concentration of the combination antibiotic up to the MIC.

[12] = tested on: GN56 Acinetobacter baumannii levofloxacin resistant clinical isolate; assay: as above; type: cell-based
From the text: as §1, §2, §3, §4, §5, §6, §7

[13] = tested on: GN31 Acinetobacter baumannii antibiotic susceptible isolate; assay: as above; type: cell-based
From the text: as §1, §2, §3, §4, §5, §6, §7

[14] = Acinetobacter baumannii, A489, A. baumannii A489, +[…] PB, preliminary MBC, 2nd experiment, read-out: MBC
[15] = Acinetobacter baumannii, A489, read-out: MBC +[…] PB, A. baumannii A489, +[…] polymyxin B, preliminary MBC, 1st experiment
[16] = Acinetobacter, Acinetobacter spp. H064200250 (OXA51), +[…] PB, preliminary MBC, 2nd experiment, read-out: MBC
[17] = Acinetobacter, read-out: MBC +[…] PB, Acinetobacter spp. H064200250, +[…] polymyxin B, preliminary MBC, 1st experiment
[18] = A. baumannii A14, preliminary MBC, 1st experiment
[19] = Acinetobacter baumannii, ATCC19606, A. baumannii ATCC 19606, +0.06 μg/ml PB, 2nd experiment, read-out: MBC
[20] = Acinetobacter baumannii, ATCC19606, read-out: MBC +0.06 μg/ml PB, A. baumannii ATCC 19606, +0.06 μg/ml polymyxin B, 1st experiment
[21] = A. baumannii A14, without polymyxin B, preliminary MBC, 1st experiment, read-out: MBC without PB
[22] = in combination with polymyxin B
[23] = polymyxin B with the named antibiotic
[24] = Acinetobacter spp. H064200250 (OXA51), +[…] PB, preliminary MBC, 2nd experiment

NCC[C@H](O)C(=O)N[C@@H]1C[C@H](N)[C@@H](O[C@H]2O[C@H](CN)[C@@H](O)[C@H](O)[C@H]2O)[C@H](O)[C@H]1O[C@H]1O[C@H](CO)[C@@H](O)[C@H](N)[C@H]1O [Amikacin, reference compound]
MBC [1, 14]: 64 µg/mL (≈ 109 µM)
MBC [1, 15]: 128 µg/mL (≈ 219 µM)
MBC [2, 16]: 1 µg/mL (≈ 1.71 µM)
MBC [2, 17]: 64 µg/mL (≈ 109 µM)
MBC +0.06 μg/ml PB [3, 18]: 16 µg/mL
MBC [4, 19]: 8 µg/mL (≈ 13.7 µM)
MBC [4, 20]: 8 µg/mL

Cc1c(-c2ccc(N)c(F)c2)ccn2c(=O)c(C(=O)O)cc(C3CC3)c12 [Compound 1, 8-(3-fluoro-4-amino-phenyl)-1-cyclopropyl-9-methyl-4-oxo-quinolizine-3-carboxylic acid]
MBC [1, 14]: ≤ 0.03 µg/mL
MBC [1, 15]: ≤ 0.03 µg/mL
MBC ([2]; Acinetobacter): ≤ 0.03 µg/mL
MBC [2, 17]: 0.25 µg/mL (≈ 0.709 µM)
MBC +0.06 μg/ml PB [3, 18]: 0.06 µg/mL
MBC [3, 21]: 32 µg/mL (≈ 90.8 µM)
MBC [4, 19]: ≤ 0.03 µg/mL
MBC [4, 20]: ≤ 0.03 µg/mL
IC50 [5]: 500 µM
Dilutions improvement shift on B. thailandensis MIC90 (between pH 7 and pH 5) [6]: Yes, 4x

Cc1c(-c2ccc(N)cc2)c(F)cn2c(=O)c(C(=O)O)cc(C3CC3)c12 [Compound 7, 8-(4-amino-phenyl)-1-cyclopropyl-7-fluoro-9-methyl-4-oxo-quinolizine-3-carboxylic acid]
MBC [1, 14]: ≤ 0.03 µg/mL
MBC [1, 15]: ≤ 0.03 µg/mL
MBC [2, 16]: ≤ 0.03 µg/mL
MBC [2, 17]: 0.25 µg/mL (≈ 0.709 µM)
MBC ([3]; A14, read-out: MBC +0.06 μg/ml PB): 1 µg/mL (≈ 2.84 µM)
MBC [3, 21]: 16 µg/mL (≈ 45.4 µM)
MBC [4, 19]: ≤ 0.03 µg/mL
MBC [4, 20]: ≤ 0.03 µg/mL
IC50 [5]: 150 µM
MIC [7]: 0.25 µg/mL (≈ 0.709 µM)
MIC [8]: 0.25 µg/mL (≈ 0.709 µM)
MIC [9]: 0.06 µg/mL (≈ 0.17 µM)
Dilutions improvement shift on B. thailandensis MIC90 (between pH 7 and pH 5) [6]: Yes, 4x
MIC [10]: 0.5 µg/mL (≈ 1.42 µM)

C[C@H]1COc2c(N3CCN(C)CC3)c(F)cc3c(=O)c(C(=O)O)cn1c23 [Levofloxacin, reference compound]
MBC [1, 14]: 4 µg/mL (≈ 11.1 µM)
MBC ([1]; Acinetobacter baumannii, A489, read-out: MBC +[…] PB): 8 µg/mL (≈ 22.1 µM)
MBC [2, 16]: 8 µg/mL (≈ 22.1 µM)
MBC +0.06 μg/ml PB [3, 18]: 32 µg/mL
Combination drug MIC alone [11]: 8 µg/mL
FICx [11]: 0.13
FICy [11]: 1.00
FICI ([11]; combination with polymyxin B): 1.13
Synergy ([11]; combination with polymyxin B): Indifferent (indifference (FICI 0.76 to 2.75))
Combination drug concentration in combination [11, 22]: 1 mg/L
Polymyxin B MIC in combination [11, 23]: 0.5 µg/mL
Combination drug MIC alone [12]: 32 µg/mL
FICx [12]: 0.13
FICy [12]: 1.00
FICI ([12]; combination with polymyxin B): 1.13
Synergy ([12]; combination with polymyxin B): Indifferent (indifference (FICI 0.76 to 2.75))
Combination drug concentration in combination [12, 22]: 4 mg/L
Polymyxin B MIC in combination [12, 23]: 0.5 µg/mL
Combination drug MIC alone [13]: 0.06 µg/mL
FICx [13]: 0.13
FICy [13]: 1.00
FICI ([13]; combination with polymyxin B): 1.13
Synergy ([13]; combination with polymyxin B): Indifferent (indifference (FICI 0.76 to 2.75))
Combination drug concentration in combination [13, 22]: 0.008 mg/L
Polymyxin B MIC in combination [13, 23]: 0.5 µg/mL

C[C@@H](O)[C@H]1C(=O)N2C(C(=O)O)=C(S[C@@H]3CN[C@H](C(=O)N(C)C)C3)[C@H](C)[C@H]12 [Meropenem]
MBC [1, 14]: ≤ 0.125 µg/mL
MBC [1, 15]: 0.5 µg/mL (≈ 1.3 µM)
MBC [2, 16]: 0.25 µg/mL (≈ 0.652 µM)
MBC [2, 17]: 1 µg/mL (≈ 2.61 µM)
MBC +0.06 μg/ml PB [3, 18]: 0.5 µg/mL
MBC [4, 19]: 2 µg/mL (≈ 5.22 µM)
MBC [4, 20]: 2 µg/mL

COc1c(N2C[C@@H]3CCCN[C@@H]3C2)c(F)cc2c(=O)c(C(=O)O)cn(C3CC3)c12 [Moxifloxacin]
MBC ([1]; Acinetobacter baumannii, A489, A. baumannii A489, +[…] PB, preliminary MBC, 2nd experiment): 4 µg/mL (≈ 9.96 µM)
MBC [1, 15]: 4 µg/mL (≈ 9.96 µM)
MBC [2, 24]: 16 µg/mL (≈ 39.9 µM)
MBC +0.06 μg/ml PB [3, 18]: 32 µg/mL

Polymyxin B [reference compound]
MBC ([1]; A. baumannii A489, +[…] PB, preliminary MBC, 2nd experiment): 0.25 µg/mL
MBC +[…] PB ([1]; A. baumannii A489, +[…] polymyxin B, preliminary MBC, 1st experiment): 1 µg/mL
MBC ([1]; A. baumannii A489, without PB, preliminary MBC, 2nd experiment): 0.5 µg/mL
MBC without PB ([1]; A. baumannii A489, without polymyxin B, preliminary MBC, 1st experiment): 2 µg/mL
MBC [2, 24]: 0.25 µg/mL
MBC ([2]; Acinetobacter spp. H064200250 (OXA51), without PB, preliminary MBC, 2nd experiment): 0.25 µg/mL
MBC +[…] PB ([2]; Acinetobacter spp. H064200250, +[…] polymyxin B, preliminary MBC, 1st experiment): 0.5 µg/mL
MBC without PB ([2]; Acinetobacter spp. H064200250, without polymyxin B, preliminary MBC, 1st experiment): 0.5 µg/mL
MBC +0.06 μg/ml PB [3, 18]: 0.5 µg/mL
MBC without PB ([3]; A. baumannii A14, without polymyxin B, preliminary MBC, 1st experiment): 0.5 µg/mL
MBC ([4]; A. baumannii ATCC 19606, +0.06 μg/ml PB, 2nd experiment): 0.25 µg/mL
MBC +0.06 μg/ml PB ([4]; A. baumannii ATCC 19606, +0.06 μg/ml polymyxin B, 1st experiment): 0.5 µg/mL
MBC ([4]; A. baumannii ATCC 19606, without PB, 2nd experiment): 0.5 µg/mL
MBC without PB ([4]; A. baumannii ATCC 19606, without polymyxin B, 1st experiment): 0.5 µg/mL
Polymyxin B MIC alone [11]: 0.5 µg/mL
Polymyxin B MIC alone [12]: 0.5 µg/mL
Polymyxin B MIC alone [13]: 0.25 µg/mL and 0.5 µg/mL
